Results: US8765773B2, “Substituted hydroxamic acids and uses thereof” (Millennium Pharmaceuticals, Inc., priority 2010, dated 2014)

Target: T1, purified human HDAC6 (Homo sapiens, UniProt Q9UBN7)
T1 construct: purchased BPS Bioscience 5006
T1 sequence (Q9UBN7 1-1215): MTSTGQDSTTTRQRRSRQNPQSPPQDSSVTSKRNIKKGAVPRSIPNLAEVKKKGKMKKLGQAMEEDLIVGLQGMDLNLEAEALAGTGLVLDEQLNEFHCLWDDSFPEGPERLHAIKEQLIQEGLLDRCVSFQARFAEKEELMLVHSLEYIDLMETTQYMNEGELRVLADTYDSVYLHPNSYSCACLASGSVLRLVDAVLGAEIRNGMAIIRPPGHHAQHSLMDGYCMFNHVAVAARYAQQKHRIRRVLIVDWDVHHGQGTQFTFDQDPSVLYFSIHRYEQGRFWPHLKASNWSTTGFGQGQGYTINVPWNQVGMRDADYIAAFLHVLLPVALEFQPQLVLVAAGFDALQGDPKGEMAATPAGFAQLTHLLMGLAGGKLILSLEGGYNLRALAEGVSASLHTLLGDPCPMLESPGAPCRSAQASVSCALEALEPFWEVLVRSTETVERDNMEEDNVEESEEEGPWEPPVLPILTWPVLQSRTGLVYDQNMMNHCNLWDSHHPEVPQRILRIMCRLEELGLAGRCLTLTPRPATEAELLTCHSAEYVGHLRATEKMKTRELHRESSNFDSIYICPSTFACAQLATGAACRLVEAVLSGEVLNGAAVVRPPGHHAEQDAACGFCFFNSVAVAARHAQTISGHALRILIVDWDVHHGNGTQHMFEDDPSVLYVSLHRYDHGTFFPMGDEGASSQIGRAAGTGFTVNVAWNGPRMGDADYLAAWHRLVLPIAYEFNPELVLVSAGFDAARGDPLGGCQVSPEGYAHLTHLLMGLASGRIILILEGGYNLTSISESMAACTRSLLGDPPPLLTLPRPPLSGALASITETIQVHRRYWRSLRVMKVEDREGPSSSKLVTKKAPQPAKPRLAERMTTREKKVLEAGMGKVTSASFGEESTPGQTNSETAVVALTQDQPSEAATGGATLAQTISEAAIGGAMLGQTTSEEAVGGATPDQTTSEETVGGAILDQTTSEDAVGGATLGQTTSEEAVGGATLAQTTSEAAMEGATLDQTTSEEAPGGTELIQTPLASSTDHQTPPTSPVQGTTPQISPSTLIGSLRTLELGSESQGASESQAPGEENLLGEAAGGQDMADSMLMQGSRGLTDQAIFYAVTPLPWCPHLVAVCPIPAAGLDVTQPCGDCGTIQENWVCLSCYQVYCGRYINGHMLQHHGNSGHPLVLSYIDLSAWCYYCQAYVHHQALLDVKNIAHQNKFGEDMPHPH
Experiment: HDAC6 Enzyme Assay
Format: biochemical
Settings: compound concentration 0.37 μM, read-out: Percent Inhibition
Procedure: To measure the inhibition of HDAC6 activity, purified human HDAC6 (BPS Bioscience; Cat. No. 5006) is incubated with substrate Ac-Arg-Gly-Lys(Ac)-AMC peptide (Bachem Biosciences; Cat. No. I-1925) for 1 hour at 30° C. in the presence of test compounds or vehicle DMSO control. The reaction is stopped with the HDAC inhibitor trichostatin A (Sigma; Cat. No. T8552) and the amount of Arg-Gly-Lys-AMC generated is quantitated by digestion with trypsin (Sigma; Cat. No. T1426) and subsequent measurement of the amount of AMC released using a fluorescent plate reader (Pherastar; BMG Technologies) set at Ex 340 nm and Em 460 nm. Concentration response curves are generated by calculating the fluorescence increase in test compound-treated samples relative to DMSO-treated controls, and percentage inhibition values at a single concentration or enzyme inhibition (IC50) values are determined from those curves. One skilled in the art will appreciate that the values generated either as percentage inhibition at a single concentration or IC50 values are subject to experimental variation.

| SMILES | inhibition at 0.37 µM [%] |
| --- | --- |
| O=C(NO)c1ccc2ncn(CCNCc3cccc(-n4cccn4)c3)c(=O)c2c1 [Compound I-332, N-hydroxy-4-oxo-3-(2-{[3-(1H-pyrazol-1-yl)benzyl]amino}ethyl)-3,4-dihydroquinazoline-6-carboxamide] | 90.4 |
| CC(c1ccccc1)n1cnc2ccc(C(=O)NO)cc2c1=O (centres unmarked) [Compound I-12, N-hydroxy-4-oxo-3-(1-phenylethyl)-3,4-dihydroquinazoline-6-carboxamide] | 99.2 |
| Cc1ccccc1Cc1nc2cc(C(=O)NO)ccc2c(=O)n1Cc1ccc(C(F)(F)F)cc1 [Compound I-35, N-hydroxy-2-(2-methylbenzyl)-4-oxo-3-[4-(trifluoromethyl)benzyl]-3,4-dihydroquinazoline-7-carboxamide] | 66 |
| O=C(NO)c1ccc2c(=O)[nH]c(Cc3ccccc3F)nc2c1 [Compound I-411, 2-(2-fluorobenzyl)-N-hydroxy-4-oxo-3,4-dihydroquinazoline-7-carboxamide] | 85.1 |
| O=C(NO)c1ccc2c(=O)[nH]c(CC3CCCCC3)nc2c1 [Compound I-409, 2-(cyclohexylmethyl)-N-hydroxy-4-oxo-3,4-dihydroquinazoline-7-carboxamide] | 92.5 |
| O=C(NO)c1ccc2c(=O)[nH]c(-c3ccccc3Cl)nc2c1 [Compound I-414, 2-(2-chlorophenyl)-N-hydroxy-4-oxo-3,4-dihydroquinazoline-7-carboxamide] | 95.4 |

Now from value to compound:

| inhibition at 0.37 µM [%] | SMILES |
| --- | --- |
| 97.9 | O=C(NO)c1ccc2ccn(Cc3cccc(-n4cc5ccccc5n4)c3)c(=O)c2c1 [Compound I-308, N-hydroxy-2-[3-(2H-indazol-2-yl)benzyl]-1-oxo-1,2-dihydroisoquinoline-7-carboxamide] |
| 98.8 | CC(C)C(=O)Nc1cccc(Cn2ccc3ccc(C(=O)NO)cc3c2=O)c1 [Compound I-174, N-hydroxy-2-[3-(isobutyrylamino)benzyl]-1-oxo-1,2-dihydroisoquinoline-7-carboxamide] |
| 91.5 | O=C(NO)c1ccc2ccn(CCC(c3ccc(Cl)cc3)c3ccc(Cl)cc3)c(=O)c2c1 [Compound I-293, 2-[3,3-bis(4-chlorophenyl)propyl]-N-hydroxy-1-oxo-1,2-dihydroisoquinoline-7-carboxamide] |

Same assay, conditions: compound concentration 0.412 μM, read-out: Percent Inhibition

| SMILES | inhibition at 0.412 µM [%] |
| --- | --- |
| O=C(NO)c1ccc2ncn(Cc3cccc(-c4ccncc4)c3)c(=O)c2c1 [Compound I-128, N-hydroxy-4-oxo-3-(3-pyridin-4-ylbenzyl)-3,4-dihydroquinazoline-6-carboxamide] | 95.9 |
| O=C(NO)c1ccc2ccn(C3CCC3)c(=O)c2c1 [Compound I-64, 2-cyclobutyl-N-hydroxy-1-oxo-1,2-dihydroisoquinoline-7-carboxamide] | 93.1 |
| O=C(NO)c1ccc2ncn(Cc3ccc(C(F)(F)F)cc3)c(=O)c2c1 [Compound I-30, N-hydroxy-4-oxo-3-[4-(trifluoromethyl)benzyl]-3,4-dihydroquinazoline-6-carboxamide] | 93.6 |
| CC(C)(C)OC(=O)N1CCC(C)(C(=O)Nc2cccc(Cn3ccc4ccc(C(=O)NO)cc4c3=O)c2)CC1 [Compound I-93, tert-butyl 4-{[(3-{[7-[(hydroxyamino)carbonyl]-1-oxoisoquinolin-2(1H)-yl]methyl}phenyl)amino]carbonyl}-4-methylpiperidine-1-carboxylate] | 90.1 |
| O=C(NO)c1ccc2ccn(CCOc3ccc(OCc4ccccc4)cc3)c(=O)c2c1 [Compound I-270, 2-{2-[4-(benzyloxy)phenoxy]ethyl}-N-hydroxy-1-oxo-1,2-dihydroisoquinoline-7-carboxamide] | 83.4 |
| O=C(NO)c1ccc2c(=O)n(Cc3ccc(C(F)(F)F)cc3)c(C3CCCCC3)nc2c1 [Compound I-150, 2-cyclohexyl-N-hydroxy-4-oxo-3-[4-(trifluoromethyl)benzyl]-3,4-dihydroquinazoline-7-carboxamide] | 30.1 |
| CC(C)(C)OC(=O)N1CCC(Cn2ccc3ccc(C(=O)NO)cc3c2=O)CC1 [Compound I-184, tert-butyl 4-{[7-[(hydroxyamino)carbonyl]-1-oxoisoquinolin-2(1H)-yl]methyl}piperidine-1-carboxylate] | 88.9 |
| O=C(NO)c1ccc2ccn(CCCOc3ccccc3C(F)(F)F)c(=O)c2c1 [Compound I-52, N-hydroxy-1-oxo-2-{3-[2-(trifluoromethyl)phenoxy]propyl}-1,2-dihydroisoquinoline-7-carboxamide] | 90 |
| O=C(NO)c1ccc2ncn(Cc3nc4ccccc4s3)c(=O)c2c1 [Compound I-67, 3-(1,3-benzothiazol-2-ylmethyl)-N-hydroxy-4-oxo-3,4-dihydroquinazoline-6-carboxamide] | 49.2 |
| CC(C)(C)OC(=O)N(CCCn1ccc2ccc(C(=O)NO)cc2c1=O)c1ccncc1 [Compound I-89, tert-butyl {3-[7-[(hydroxyamino)carbonyl]-1-oxoisoquinolin-2(1H)-yl]propyl}pyridin-4-ylcarbamate] | 95.6 |
| O=C(NO)c1ccc2ccn(C(c3ccccc3)c3ccccc3)c(=O)c2c1 [Compound I-19, 2-(diphenylmethyl)-N-hydroxy-1-oxo-1,2-dihydroisoquinoline-7-carboxamide] | 94.4 |

Now from value to compound:

| inhibition at 0.412 µM [%] | SMILES |
| --- | --- |
| 87.9 | O=C(NO)c1ccc2ccn(Cc3ccccn3)c(=O)c2c1 [Compound I-279, N-hydroxy-1-oxo-2-(pyridin-2-ylmethyl)-1,2-dihydroisoquinoline-7-carboxamide] |
| 96.5 | O=C(NO)c1ccc2ccn(Cc3ccc4ccccc4c3)c(=O)c2c1 [Compound I-5, N-hydroxy-2-(2-naphthylmethyl)-1-oxo-1,2-dihydroisoquinoline-7-carboxamide] |
| 92.3 | O=C(NO)c1ccc2ccn(Cc3csc4ccc(Cl)cc34)c(=O)c2c1 [Compound I-211, 2-[(5-chloro-1-benzothien-3-yl)methyl]-N-hydroxy-1-oxo-1,2-dihydroisoquinoline-7-carboxamide] |
| 79.1 | COc1ccc(NCCn2ccc3ccc(C(=O)NO)cc3c2=O)cc1 [Compound I-97, N-hydroxy-2-{2-[(4-methoxyphenyl)amino]ethyl}-1-oxo-1,2-dihydroisoquinoline-7-carboxamide] |
| 92.9 | O=C(NO)c1ccc2ccn(Cc3ccc(OC(F)(F)F)cc3)c(=O)c2c1 [Compound I-190, N-hydroxy-1-oxo-2-[4-(trifluoromethoxy)benzyl]-1,2-dihydroisoquinoline-7-carboxamide] |
| 93.3 | O=C(NO)c1ccc2ccn(CCCc3ccncc3)c(=O)c2c1 [Compound I-118, N-hydroxy-1-oxo-2-(3-pyridin-4-ylpropyl)-1,2-dihydroisoquinoline-7-carboxamide] |
| 98.7 | O=C(NO)c1ccc2ccn(CCOc3ccccc3Cl)c(=O)c2c1 [Compound I-204, 2-[2-(2-chlorophenoxy)ethyl]-N-hydroxy-1-oxo-1,2-dihydroisoquinoline-7-carboxamide] |
| 89.7 | O=C(NO)c1ccc2ccn(Cc3cccc4cccnc34)c(=O)c2c1 [Compound I-83, N-hydroxy-1-oxo-2-(quinolin-8-ylmethyl)-1,2-dihydroisoquinoline-7-carboxamide] |
| 96.9 | O=C(NO)c1ccc2ccn(CCCc3ccc(Cl)cc3)c(=O)c2c1 [Compound I-131, 2-[3-(4-chlorophenyl)propyl]-N-hydroxy-1-oxo-1,2-dihydroisoquinoline-7-carboxamide] |
